Values of other authors, collected in patent US20080139517A1, “Methods of treating age associated memory impairment (AAMI), mild cognitive impairment (MCI), and dementias with cell cycle inhibitors” (priority 2002, published 2008).

Tests used:
[1] = test system: ERK-1 and ERK-2 (p44 and p42 MAPK); details: in response to hypoxia/reoxygenation injury
leukemia cells = details: G1 phase
cdk4 = cdk4 (Homo sapiens, UniProt P11802)
vascular dementia = details: in vivo
moderate to severe AD = details: in vivo
human cancer cells = details: demonstrated in non-small-cell lung cancer cells
[2] = children
PC12 cells = details: presence of nerve growth factor

Sequence of cdk4 (P11802 whole entry, species assumed): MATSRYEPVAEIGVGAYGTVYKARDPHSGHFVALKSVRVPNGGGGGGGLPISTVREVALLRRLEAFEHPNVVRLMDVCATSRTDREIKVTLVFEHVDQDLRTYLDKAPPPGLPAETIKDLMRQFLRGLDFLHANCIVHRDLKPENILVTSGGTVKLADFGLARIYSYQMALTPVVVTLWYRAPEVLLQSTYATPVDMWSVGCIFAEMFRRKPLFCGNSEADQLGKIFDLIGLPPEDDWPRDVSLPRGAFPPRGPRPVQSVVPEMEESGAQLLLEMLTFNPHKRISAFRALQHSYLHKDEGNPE
Sequence of cdk4 (P24385 whole entry partner, species assumed): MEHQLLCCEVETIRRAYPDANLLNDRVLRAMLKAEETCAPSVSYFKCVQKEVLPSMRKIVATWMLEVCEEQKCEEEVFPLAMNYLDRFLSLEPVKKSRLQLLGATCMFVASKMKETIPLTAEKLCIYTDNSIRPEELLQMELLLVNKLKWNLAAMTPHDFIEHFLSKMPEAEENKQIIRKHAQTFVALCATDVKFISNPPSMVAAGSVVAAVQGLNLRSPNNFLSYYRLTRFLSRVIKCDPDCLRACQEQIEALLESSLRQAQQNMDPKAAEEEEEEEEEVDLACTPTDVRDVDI

In the case of CC(=O)Oc1ccccc1C(=O)O [Aspirin, Acetylsalicylic acid], the “ERK-1 and ERK-2 (p44 and p42 MAPK) activation” value [1] is given as “inhibit”.

In the case of NS(=O)(=O)c1ccc(S(=O)(=O)Nc2cccc3c(Cl)c[nH]c23)cc1 [E7070, N-(3-chloro-7-indolyl)-1,4-benzenedisulfonamide], the “cell cycle progression of leukemia cells” value (leukemia cells) is listed as “block”.

For O=C1c2ccccc2-[n+]2ccc3c([nH]c4ccccc43)c21 [Fascaplysin], the cdk4 inhibition (cdk4) is listed as “specifically inhibit”.

In the case of C[C@]12N[C@H](Cc3ccccc31)c1ccccc12 [MK801], the excitotoxic neuronal death (neuronal death) is given as “blocks”.

In the case of CC12CC3CC(C)(C1)CC(N)(C3)C2 [Memantine], the “treatment of vascular dementia” value (vascular dementia) is given as “useful” and the “treatment of moderate to severe AD” value (moderate to severe AD) is given as “useful”.

For Cn1cncc1[C@@](N)(c1ccc(Cl)cc1)c1ccc2c(c1)c(-c1cccc(Cl)c1)cc(=O)n2C [R115777], the p21 ras activation (p21 ras) is given as “prevent”.

For NC(=O)N1CCC(CC(=O)N2CCC([C@H]3c4ncc(Br)cc4CCc4cc(Cl)cc(Br)c43)CC2)CC1 [SCH66336], the p21 ras activation (p21 ras) is listed as “prevent”.

For CCCC(CCC)C(=O)O [Valproate, valproic acid], the “cell cycle arrest in glioma cell lines” value (glioma cell lines) is given as “induce cell cycle arrest”.

For C[C@@H]1C[C@H]1[C@H](C)C[C@@H](O)[C@@]1([C@H]2CC[C@H]3[C@@H]4CC[C@H]5CC(=O)CC[C@]5(C)[C@H]4C[C@@H](O)[C@]23C)CO1 [YTA0040, Aragusterol A], the “cell cycle arrest of human cancer cells” value (human cancer cells) is given as “arrested human cancer cells cycle in the G1 phase”.

In the case of CN1CC[C@H](c2c(O)cc(O)c3c(=O)cc(-c4ccccc4Cl)oc23)[C@H](O)C1 [flavopiridol], the excitotoxic neuronal death (neuronal death) is listed as “blocks”.

For C=C(C)[C@H]1CN[C@H](C(=O)O)[C@H]1CC(=O)O [kainic acid], the “cyclin D1 expression” value (cyclin D1) is listed as “upregulates”.

For CN(Cc1cnc2nc(N)nc(N)c2n1)c1ccc(C(=O)N[C@@H](CCC(=O)O)C(=O)O)cc1 [methotrexate], the “cognitive impairment associated with treatment” value [2] is given as “learning disabilities”.

In the case of CC[C@H](CO)Nc1nc(NCc2ccccc2)c2ncn(C(C)C)c2n1 [roscovitine], the cell cycle arrest (cell cycle) is given as “cell cycle arrest at the G1 phase”.

For CCCC(=O)[O-].[Na+] [sodium butyrate], the “expression of late G1 phase genes such as cdc 2” value (cdc 2) is listed as “inhibits”.

In the case of C=CC[C@@H]1/C=C(\C)C[C@H](C)C[C@H](OC)[C@H]2O[C@@](O)(C(=O)C(=O)N3CCCC[C@H]3C(=O)O[C@H](/C(C)=C/[C@@H]3CC[C@@H](O)[C@H](OC)C3)[C@H](C)[C@@H](O)CC1=O)[C@H](C)C[C@@H]2OC [tacrolimus], the neurite outgrowth (PC12 cells) is given as “little effect”.
